From PubChem BioAssay (NCI)
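Values below derive from 48-hour exposures of cells grown in 96-well plates, with endpoints linearly interpolated between the two concentrations bracketing the appropriate inhibition level. GI50: concentration for 50% inhibition of growth. TGI is the concentration that stops growth completely.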

Legend:
Assay in all cases: growth of human tumour cells (NCI), 48 h
[1] = tested on: CAKI-1 renal
[2] = tested on: CCRF-CEM leukemia
[3] = tested on: HCC-2998 colon
[4] = tested on: HCT-116 colon
[5] = tested on: OVCAR-3 ovarian
[6] = tested on: SK-MEL-28 melanoma
[7] = tested on: UACC-62 melanoma
[8] = tested on: MALME-3M melanoma

## CS(=O)(=O)c1ccc(-n2nc(C(F)(F)F)cc2OC2CCCC2)cc1
[1]
  GI50: 21.1 µM
  TGI: 54.4 µM
[2]
  GI50: 38.3 µM
  TGI: > 100 µM
[3]
  GI50: 27 µM
  TGI: 73.5 µM
[4]
  GI50: 34.5 µM
  TGI: > 100 µM
[5]
  GI50: 32.9 µM
  TGI: > 100 µM
[6]
  GI50: > 100 µM
  TGI: > 100 µM
[7]
  GI50: 33.3 µM
  TGI: > 100 µM

## Cc1ccc(C(=O)N(CCCN)C(c2oc3cc(Cl)ccc3c(=O)c2Cc2ccccc2)C(C)C)cc1 (centres undefined)
[1]
  GI50: 0.0492 µM
  TGI: 1.94 µM
[2]
  GI50: < 0.01 µM
  TGI: 1.7 µM
[3]
  GI50: < 0.01 µM
  TGI: 1.58 µM
[8]
  GI50: 1.3 µM
  TGI: 3.09 µM
[5]
  GI50: < 0.01 µM
  TGI: 1.14 µM
[6]
  GI50: 1.07 µM
  TGI: 2.5 µM
[7]
  GI50: < 0.01 µM
  TGI: 2.3 µM

## O=C(O)C(CS)Nc1c2ccccc2nc2ccccc12 (centres undefined)
[1]
  TGI: > 100 µM
[2]
  TGI: > 100 µM
[3]
  TGI: > 100 µM
[8]
  TGI: > 100 µM
[5]
  TGI: > 100 µM
[6]
  TGI: > 100 µM

## NC12CC3CC(C1)CC(C(=O)O)(C3)C2
[1]
  TGI: > 100 µM
[2]
  TGI: > 100 µM
[3]
  TGI: > 100 µM
[4]
  TGI: > 100 µM
[5]
  TGI: > 100 µM
[6]
  TGI: > 100 µM
[7]
  TGI: > 100 µM

## COc1cc(Nc2nc3ccccc3nc2-c2cccs2)cc(OC)c1OC
[2]
  TGI: > 100 µM
[3]
  TGI: > 100 µM
[4]
  TGI: > 100 µM
[8]
  TGI: > 100 µM
[5]
  TGI: > 100 µM
[6]
  TGI: > 100 µM
[7]
  TGI: > 100 µM

## C/C(CC(=O)Nc1cc(C)ccc1C)=N\NC(=O)c1ccncc1
[2]
  TGI: > 100 µM
[3]
  TGI: > 100 µM
[4]
  TGI: > 100 µM
[8]
  TGI: > 100 µM
[5]
  TGI: > 100 µM
[6]
  TGI: > 100 µM
[7]
  TGI: > 100 µM

## O=c1cc(-c2ccccc2)oc2cc(OC/C(=N/O)c3ccccc3)ccc12
[1]
  GI50: 12.8 µM
  TGI: > 50 µM
[3]
  GI50: 30.7 µM
  TGI: > 50 µM
[5]
  GI50: 12.8 µM
  TGI: > 50 µM
[6]
  GI50: 12.3 µM
  TGI: 32.2 µM
[7]
  GI50: 12.7 µM
  TGI: > 50 µM

## CCc1ccccc1NC(=O)C1=C(C)NC(C)=C(C(=O)Nc2ccccc2CC)C1c1ccc2c(c1)OCO2
[1]
  TGI: 88.5 µM
[2]
  TGI: 84.4 µM
[3]
  TGI: 41 µM
[8]
  TGI: 99 µM
[5]
  TGI: 84 µM
[6]
  TGI: > 100 µM

## O=C1c2ccccc2C(=O)N1CCc1ncc[nH]1
[1]
  TGI: > 100 µM
[2]
  TGI: > 100 µM
[4]
  TGI: > 100 µM
[5]
  TGI: > 100 µM
[6]
  TGI: > 100 µM
[7]
  TGI: > 100 µM

## CCC[CH2][Sn]1([CH2]CCC)[O]C(=O)CN=Cc2c(ccc3ccccc23)[O]1
[1]
  GI50: 0.0629 µM
  TGI: 0.593 µM
[3]
  GI50: 0.777 µM
  TGI: 2.02 µM
[4]
  GI50: 1.04 µM
  TGI: 2.32 µM
[8]
  GI50: 0.134 µM
  TGI: 0.464 µM
[5]
  GI50: 0.706 µM
  TGI: 1.95 µM
[6]
  GI50: 0.363 µM
  TGI: 1.13 µM
[7]
  GI50: 0.229 µM
  TGI: 0.558 µM

## O=C(CCc1cc(-c2ccccc2)nc(=S)[nH]1)N(Cc1ccccc1)Cc1ccccc1
[1]
  TGI: > 100 µM
[2]
  TGI: > 100 µM
[3]
  TGI: > 100 µM
[4]
  TGI: > 100 µM
[8]
  TGI: > 100 µM
[5]
  TGI: > 100 µM
[7]
  TGI: > 100 µM

## Nc1c(-c2ccc(Cl)cc2)[n+]([O-])c2ccccc2[n+]1[O-]
[1]
  TGI: > 100 µM
[2]
  TGI: > 100 µM
[3]
  TGI: > 100 µM
[8]
  TGI: > 100 µM
[5]
  TGI: > 100 µM
[6]
  TGI: > 100 µM
[7]
  TGI: > 100 µM

## O/N=C/c1ncccc1C1OCCO1
[1]
  TGI: > 100 µM
[2]
  TGI: > 100 µM
[4]
  TGI: > 100 µM
[8]
  TGI: > 100 µM
[5]
  TGI: > 100 µM
[6]
  TGI: > 100 µM
[7]
  TGI: > 100 µM

## N#C/C(=C\c1ccc2ccccc2c1)c1ccccc1
[1]
  TGI: 50 µM
[2]
  TGI: 78.1 µM
[3]
  TGI: 87.9 µM
[4]
  TGI: > 100 µM
[5]
  TGI: 28.3 µM
[6]
  TGI: > 100 µM
[7]
  TGI: 36.7 µM

## O=C(O)/C=C(\c1nc2ccc([N+](=O)[O-])cc2[nH]1)c1cc(Cl)ccc1O
[2]
  GI50: 2.51 µM
  TGI: 12.7 µM
[3]
  GI50: 4.13 µM
  TGI: 29.4 µM
[4]
  GI50: 2.35 µM
  TGI: 7.03 µM
[8]
  GI50: 1.96 µM
  TGI: 7.52 µM
[6]
  GI50: 2.66 µM
  TGI: 14.4 µM
[7]
  GI50: 1.45 µM
  TGI: 5.41 µM

## O=C(CC1C(=O)NN(c2ccc(Br)cc2)C1=O)c1cc(O)ccc1O (centres undefined)
[1]
  GI50: 14.4 µM
  TGI: 35.7 µM
[2]
  GI50: > 50 µM
  TGI: > 50 µM
[4]
  GI50: 26.2 µM
  TGI: > 50 µM
[5]
  GI50: 7.41 µM
  TGI: 21.7 µM
[6]
  GI50: 28 µM
  TGI: > 50 µM
[7]
  GI50: 12 µM
  TGI: 27.7 µM

## COc1cc(C(=O)CBr)c(OC)cc1C
[1]
  TGI: > 100 µM
[2]
  TGI: > 100 µM
[4]
  TGI: > 100 µM
[8]
  TGI: > 100 µM
[6]
  TGI: > 100 µM
[7]
  TGI: > 100 µM
